Read-outs that look alike come from different tables or passages of the source.
What was measured:
[1] = biological target: T1, MCR-1 (Homo sapiens, UniProt Q01726); test: Melanocortin receptor binding assay, competition with 125I-HP 467, HEK 293 cells expressing hMCR-1; details: for IC50: read-out: MC-1 IC50; for % Disp. MC-1 10 μM: displacement of 125I-HP 467 at 10 μM isoquinoline compound
T1 construct: expressed in transfected cells; host or cells: HEK 293
In short: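 Intact-cell competition binding, 2.5 hr at 37 °C, in PBS/10% calf serum/1 mM CaCl2; hMCR-4 cells at 4×10^3 per tube, hMCR-1 cells at 2×10^4 per tube. Filtration on BSA/CaCl2-soaked GF/B, cold 50 mM Tris pH 7.4 washes, scintillation count.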

[2] = biological target: T2, MCR-4 (Homo sapiens, UniProt P32245); test: Melanocortin receptor binding assay, competition with 125I-HP 467, HEK 293 cells expressing hMCR-4; details: for IC50: read-out: MC-4 IC50
T2 construct: expressed in transfected cells; host or cells: HEK 293
T2 sequence (P32245 whole entry): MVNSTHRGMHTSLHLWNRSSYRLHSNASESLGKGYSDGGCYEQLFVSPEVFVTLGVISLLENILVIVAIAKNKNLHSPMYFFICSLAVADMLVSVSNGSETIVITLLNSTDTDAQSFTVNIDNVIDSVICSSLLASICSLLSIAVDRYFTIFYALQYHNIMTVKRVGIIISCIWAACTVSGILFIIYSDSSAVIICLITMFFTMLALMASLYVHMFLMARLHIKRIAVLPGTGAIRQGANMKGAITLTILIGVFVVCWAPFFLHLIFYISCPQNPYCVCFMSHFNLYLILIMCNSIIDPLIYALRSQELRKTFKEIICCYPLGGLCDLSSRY
Description: All cell culture media and reagents were obtained from GibcoBRL (Gaithersburg Md.), except for COSMIC CALF SERUM (HyClone; Logan Utah).
Cells were suspended in PBS, 10% COSMIC CALF SERUM and 1 mM CaCl2. Cell suspensions were prepared at a density of 2×10^4 cells/ml for HEK 293 cells expressing hMCR-3, hMCR-4 or hMCR-5, and 1×10^5 cells/ml for HEK 293 cells expressing hMCR-1. Suspensions were placed in a water bath and allowed to warm to 37° C. for 1 hr.
Binding assays were performed in a total volume of 250 μl for HEK 293 cells. […] To each tube was added 4×10^3 HEK 293 cells expressing hMCR-3, hMCR-4 or hMCR-5, or 2×10^4 cells expressing hMCR-1. Assays were incubated for 2.5 hr at 37° C.
GF/B filter plates were prepared by soaking for at least one hour in 5 mg/ml BSA and 10 mM CaCl2. Assays were filtered using a Brandel 96-well cell harvester (Brandel Inc.; Gaithersburg, Md.). The filters were washed four times with cold 50 mM Tris, pH 7.4, the filter plates were dehydrated for 2 hr and 35 μl of MICROSCINT was added to each well. Filter plates were counted using a Packard Topcount (Packard Instrument Co.) and data analyzed using GraphPad PRISM v2.0 (GraphPad Software Inc.; San Diego Calif.) and Microsoft EXCEL v5.0a (Microsoft Corp.; Redmond Wash.).
To assay isoquinoline compounds, binding assays were performed in duplicate in a 96 well format. […] A 0.2 ml aliquot of suspended cells was added to each well to give the cell numbers indicate above, and the cells were incubated at 37° C. for 2.5 hr. Cells were harvested on GF/B filter plates as described above and counted.

[3] = TRG 2406 and TRG 2407 libraries, inhibition of binding of 125I-HP 467
[4] = inhibition of binding of 125I-HP 467, HEK 293 cells expressing MCR-4, TRG 2414 library
[5] = inhibition of binding of 125I-HP 467, HEK 293 cells expressing MCR-1

T1 sequence (Q01726 whole entry): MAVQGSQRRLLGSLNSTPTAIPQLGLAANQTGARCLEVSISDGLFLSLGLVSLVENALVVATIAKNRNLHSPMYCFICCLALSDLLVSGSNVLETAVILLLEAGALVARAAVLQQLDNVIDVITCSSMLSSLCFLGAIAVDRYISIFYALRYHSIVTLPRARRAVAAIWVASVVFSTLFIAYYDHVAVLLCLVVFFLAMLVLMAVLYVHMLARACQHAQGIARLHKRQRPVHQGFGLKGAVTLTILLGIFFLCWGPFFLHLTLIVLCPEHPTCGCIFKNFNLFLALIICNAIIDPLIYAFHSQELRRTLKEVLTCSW

For `CCCOc1ccc(C2C(CNCc3ccccc3)c3ccccc3CN2CCCCC(CN)NCC(C)c2ccc(CC(C)C)cc2)cc1` (mixture of isomers) [Cmpd 192], the IC50 ([1]; TRG 2414 library, inhibition of binding of 125I-HP 467, HEK 293 cells expressing MCR-1) was 11400 nM and the IC50 ([2]; TRG 2414 library, inhibition of binding of 125I-HP 467, HEK 293 cells expressing MCR-4) was 16000 nM.
In the case of `CNC(CN)CN1Cc2ccccc2C(CNC2CCCCC2)C1c1cccn1C` (mixture of isomers) [TRG 2405-94], the IC50 ([1]; TRG 2405 section, inhibition of binding of 125I-HP 467, HEK 293 cells expressing MCR-1) is reported as 2110 nM, the “% Disp. MC-1 10 μM” value ([1]; first of duplicate) is reported as 68.9% and the “% Disp. MC-1 10 μM” value ([1]; second of duplicate) is reported as 72%. The IC50 ([2]; TRG 2405 section, inhibition of binding of 125I-HP 467, HEK 293 cells expressing MCR-4) was 10500 nM.
`CNC(CN)CCCCN1Cc2ccccc2C(CNCc2ccccc2O)C1c1cccc(Oc2ccc(Cl)c(Cl)c2)c1` (mixture of isomers) [TRG 2406-4] was tested, and the IC50 [1, 3] was 1720 nM and the IC50 [2, 3] was 3780 nM.
`NCCN1Cc2ccccc2C(CNCc2ccccc2O)C1c1ccc(Oc2ccccc2)cc1` (mixture of isomers) [TRG 2406-11] gave an IC50 [1, 3] of 10500 nM and an IC50 [2, 3] of 7000 nM.
Work on `CNC(CN)CCCCN1Cc2ccccc2C(CNc2ccccc2)C1c1ccc(Cl)cc1Cl` (mixture of isomers) [TRG 2407-1] yielded an IC50 [1, 3] of 5570 nM and an IC50 [2, 3] of 10600 nM.
Compound `CNC(CN)CCCCN1Cc2ccccc2C(CNCc2ccccc2OC)C1c1ccc(Cl)cc1Cl` (mixture of isomers) [TRG 2407-14] has an IC50 [1, 3] of 370 nM and an IC50 [2, 3] of 410 nM.
With `CNC(CN)CCCCN1Cc2ccccc2C(CNCCc2ccccc2Cl)C1c1ccc(Cl)cc1Cl` (mixture of isomers) [TRG 2407-22] the IC50 [1, 3] was 1340 nM and the IC50 [2, 3] was 690 nM.
`CNC(CN)CCCCN1Cc2ccccc2C(CNCCc2ccccc2OC)C1c1ccc(Cl)cc1Cl` (mixture of isomers) [TRG 2407-23] gave an IC50 [1, 3] of 940 nM and an IC50 [2, 3] of 690 nM.
`CNC(CN)CCCCN1Cc2ccccc2C(CNCCc2cccc(Cl)c2)C1c1ccc(Cl)cc1Cl` (mixture of isomers) [TRG 2407-24] showed an IC50 [1, 3] of 1790 nM and an IC50 [2, 3] of 800 nM.
`CNC(CN)CCCCN1Cc2ccccc2C(CNCC2CCCCC2)C1c1ccc(Cl)cc1Cl` (mixture of isomers) [TRG 2407-31] gave an IC50 [1, 3] of 1110 nM and an IC50 [2, 3] of 1020 nM.
`CNC(CN)CCCCN1Cc2ccccc2C(CNN2CCCCC2)C1c1ccc(Cl)cc1Cl` (mixture of isomers) [TRG 2407-34] showed an IC50 [1, 3] of 3970 nM and an IC50 [2, 3] of 2010 nM.
`NCC(CCCCN1Cc2ccccc2C(CNCc2ccccc2C(F)(F)F)C1c1ccc(Cl)cc1Cl)NCc1ccccc1` (mixture of isomers) [TRG 2414-3] showed an IC50 [2, 4] of 65600 nM.
In the case of `NCC(CCCN1Cc2ccccc2C(CNCCc2ccccc2)C1c1ccc([N+](=O)[O-])cc1)NCCc1ccccc1` (stereo not shown) [TRG 2413-13], the IC50 [1, 5] is reported as 1070 nM.
`NCC(CCCN1Cc2ccccc2C(CNC2CCCCC2)C1c1ccc([N+](=O)[O-])cc1)NCCc1ccccc1` (stereo not shown) [TRG 2413-14] was tested, and the IC50 [1, 5] was 1570 nM.
`NCC(CCCN1Cc2ccccc2C(CN)C1c1ccc([N+](=O)[O-])cc1)NCCc1ccccc1` (stereo not shown) [TRG 2413-15] showed an IC50 [1, 5] of 1920 nM.
For `NCC(N)CCCCN1Cc2ccccc2C(CNCc2ccccc2C(F)(F)F)C1c1ccc(Cl)cc1Cl` (stereo not shown) [TRG 2414-1], the IC50 [2, 4] was 7590 nM.
For `NCC(CCCCN1Cc2ccccc2C(CNCc2ccccc2C(F)(F)F)C1c1ccc(Cl)cc1Cl)NCCc1ccccc1` (stereo not shown) [TRG 2414-2], the IC50 [2, 4] was 29300 nM.
In the case of `CC(C)Cc1ccc(C(C)CNC(CN)CCCCN2Cc3ccccc3C(CNCc3ccccc3C(F)(F)F)C2c2ccc(Cl)cc2Cl)cc1` (stereo not shown) [TRG 2414-4], the “MC-4 IC50” value [2, 4] is reported as “no fit”.
In the case of `CCOc1ccccc1CNCC1c2ccccc2CN(CCCCC(N)CN)C1c1ccc(Cl)cc1Cl` (stereo not shown) [TRG 2414-5], the IC50 [2, 4] is reported as 480 nM.
With `CCOc1ccccc1CNCC1c2ccccc2CN(CCCCC(CN)NCCc2ccccc2)C1c1ccc(Cl)cc1Cl` (stereo not shown) [TRG 2414-6] the IC50 [2, 4] was 5540 nM.
In the case of `CCOc1ccccc1CNCC1c2ccccc2CN(CCCCC(CN)NCc2ccccc2)C1c1ccc(Cl)cc1Cl` (stereo not shown) [TRG 2414-7], the IC50 [2, 4] is reported as 4560 nM.
With `CCOc1ccccc1CNCC1c2ccccc2CN(CCCCC(CN)NCC(C)c2ccc(CC(C)C)cc2)C1c1ccc(Cl)cc1Cl` (stereo not shown) [TRG 2414-8] the IC50 [2, 4] was 13800 nM.
Compound `NCC(CCCCN1Cc2ccccc2C(CNCCc2ccc(Oc3ccccc3)cc2)C1c1cc(C(F)(F)F)cc(C(F)(F)F)c1)NCc1ccc(Br)cc1` (stereo not shown) [TRG 2421-28] has an IC50 [1, 5] of 15700 nM.
For `NCC(CCCCN1Cc2ccccc2C(CNCCc2ccc(Oc3ccccc3)cc2)C1c1cc(C(F)(F)F)cc(C(F)(F)F)c1)NCc1ccc(-c2ccccc2)cc1` (stereo not shown) [TRG 2421-30], the IC50 [1, 5] was 36400 nM.

From patent US6608082B1, “Treatment of erectile dysfunction using isoquinoline compound melanocortin receptor ligands” (Lion Bioscience AG, priority 1998, dated 2003)
